{"source": "patent US20260209205A1", "about": "“CRYSTALLINE FORMS OF A TYK2 INHIBITOR AND USES THEREOF” (Alumis Inc., priority 2022, published 2026)", "format_in_all_cases": "physicochemical", "key": {"[1]": {"test": "Dynamic vapor sorption (DVS) / hygroscopicity"}, "[2]": {"test": "Solid-state chemical and physical stability on storage"}, "[3]": {"test": "Interconversion studies of Form 1 and Form 2 stirred in solvents", "conditions": "isopropanol (50° C., 7 days), acetone (50° C., 3 days), acetone/water 9/1 v/v (50° C., 1 day; room temperature, 1 day)", "protocol": "In interconversion studies, equal amounts of Form 1 and Form 2 were added in various solvents and stirred at various temperatures for several days."}}, "note": "Where a name gives a salt, the structure may show the parent alone.", "data": [{"smiles": "[2H]C([2H])([2H])CC(=O)c1cnc(NC(=O)C2CC2)cc1Nc1cccc(-c2ncn(C([2H])([2H])[2H])n2)c1OC", "note": "[Form 1, N-(4-((2-methoxy-3-(1-(methyl-d3)-1H-1,2,4-triazol-3-yl)phenyl)amino)-5-(propanoyl-3,3,3-d3)pyridin-2-yl) cyclopropanecarboxamide hydrochloride]", "values": [{"measurement": "Hygroscopicity", "setting": "[1]", "value": "slightly hygroscopic"}, {"measurement": "Form change after DVS analysis", "setting": "[1]; after DVS analysis", "value": "No form change"}, {"measurement": "DVS reversable total mass change", "setting": "[1]; between about 0% to about 80% relative humidity (RH) at 25° C.", "value": "about 0.2 wt. %"}, {"measurement": "DVS reversable total mass change", "setting": "[1]; between about 0% to about 90% relative humidity (RH) at 25° C.", "value": "about 0.3 wt. %"}, {"measurement": "Time chemically and physically stable in the solid form", "setting": "[2]; 40° C./75% RH", "value": "at least 10 days"}, {"measurement": "Time chemically and physically stable in the solid form", "setting": "[2]; 60° C.", "value": "at least 10 days"}, {"measurement": "Time chemically and physically stable", "setting": "[2]; ambient temperature and humidity", "value": "at least 12 months"}, {"measurement": "Relative stability of crystalline forms (form obtained from equal amounts of Form 1 and Form 2)", "setting": "[3]", "value": "more stable crystalline form"}]}]}
